Source: patent publication US20090247495A1, “CU[…] AND USES THEREOF” (priority 2007, published 2009)
Entries after “also recorded” stand apart in the source; their conditions may differ.

Key:
[1] = tested on: Erk1/2; assay: Western blot of Erk1/2 in HepG2, HT29 and MCF-7 cells; type: cell-based, human
Protocol: The human cancer cells line were serum starved for 18 hours prior to CuB/CuD treatment. Cells were incubated in a 6-well plate filled with 5 ml growth medium (RPMI with 0.2% FBS and 1% PS) at the cell density of 1×10^5 cells/ml, in the presence or absence of two different dosages of CuB/CuD for various time intervals. The drug treatment was terminated by centrifugation at 1,500 rpm for 5 minutes and the cells were rinsed twice with phosphate-buffered saline and lysed at 4° C. in a lysis buffer containing 50 mM Tris-HCl, pH7.5, 100 mM NaCl, 5 mM EDTA, 40 mM NaP2O7, 1% Triton X-100, 1 mM dithiothreitol, 200 μM Na3VO4, 100 uM phenylmethysufonyl fluoride, 2 μg/ml leupeptin, 4 μg/ml aprotinin and 0.7 μg/ml pepstatin. The insoluble protein lysate were removed by centrifugation for 10 minutes at 13,000 rpm. Fifteen micrograms of protein lysate was resolved using 10% SDS-polyacryamide gel electrophoresis (PAGE) and then subjected to western blot anaylsis. Western blots were performed with anti-Stat3, anti-Erk1/2 and anti-hsp27 antibodies specific for phosphor- and total Stat3, Erk and hsp27 proteins. The protein bands were then visualized with the Enhanced Chemiluminescence Plus (ECL Plus) detection system (Amersham). • 6.2.8.1 Inhibition Effect Cucurbitacin B/Cucurbitacin D on Stat3 Activation in HepG2 and HT29 Cells
Cells were incubated either with CuB or CuD (25 ug/ml or the dosage of IC50) for various time intervals (5, 10 or 30 mins, 1 or 4 hours). The Stat3 activation was detected by western blot.

[2] = tested on: K562 cells; assay: Cell morphology by microscopy, K562; type: cell-based, human; settings: 48 hours
Protocol: 10^5/ml K562 cells were treated with cucurbitacin B in the presence of complete medium containing 10% FBS for 48 hours. The changes in cell morphology were visualized using Leica DMIL (Leica Microsystem). Cells were harvested and rinsed twice with ice-cold PBS (pH7.4) and a total 2.5×10^5 K562 cells were stained with 10 μl Annexin V and 10 μl propidium iodide in 100 μl 1×binding buffer for 15 minutes in dark and then subjected to apoptosis analysis with FACSCalibar Flow cytometer system (FACS Calibur BD Flow Cytometer). • 6.1.5 Flow Cytometry for Cell Cycle Analysis
After 48 hours of cucurbitacin B treatment, the cells were viewed using a Leica DMIL microscope at 400×magnification. […] However, the treated cells lost the rounded shape and shrank in size at the highest dose of cucurbitacin B used (80nM).

[3] = tested on: Stat3; assay: Western blot of Stat3 activation in K562 cells; type: cell-based, human; settings: 50 μM
Protocol: K562 leukemia cells were serum starved for 18 hours prior to cucurbitacin B treatment. The cells were incubated at a 75-mm culture flask filled with 10 ml growth medium (RPMI with 10% FBS and 1% PS) at the cell density of 1×10^5 cells/ml in the presence or absence of cucurbitacin B for various time intervals. The drug treatment were terminated by centrifugation at 1500 rpm for 5 minutes and the cells were rinsed twice with phosphate-buffered saline and lysed at 4° C. in a lysis buffer containing 50 mM Tris-HCl, pH7.5, […], 5 mM EDTA, 40 mM NaP2O7, 1% Triton X-100, 1 mM dithiothreitol, 200 μM Na3VO4, 100 μM phenylmethysufonyl fluoride, 2 μg/ml leupeptin, 4 μg/ml aprotinin and 0.7 μg/ml pepstatin. The insoluble protein lysate were removed by centrifugation for 10 minutes at 13000 rpm. Fifteen micrograms of protein lysate was resolved using SDS-polyacryamide gel electrophoresis (PAGE) (usually 8%-12% polyacrylamide gel) and then subjected to western blot anaylsis. Western blots were performed with antibodies specific for phosphorylated and total Stat3, c-Raf, Mek, and Erk. The blots were developed with the Enhanced Chemiluminescence Plus (ECL Plus) detection system (Amersham). • 6.1.7 GTPase Pull-Down Assay
15 μg cell lysate of each sample was separated in 8% SDS-PAGE followed by immuno-blotting with anti-Stat3 antibodies to detect the phosphorylated form of Stat3 as well as its total expression level.
Cells were serum starved for 18 hours followed by treated with 50 μM cucurbitacin B for 10 minutes, 30 minutes, 1 hour and 4 hours, respectively. 15 μg cell lysate of each sample was separated in 8% SDS-PAGE followed by immuno-blotting with anti-Stat3 antibodies to detect the phosphorylated form of Stat3 as well as its total expression level.

[4] = tested on: Human leukemia cell lines CCRF-CEM, K562, MOLT-4, RPMI-8226 and SR; assay: Cell proliferation assay using SRB, 5 human leukemia cell lines; type: cell-based; settings: 48 hours treatment, range over all leukemia cell lines
Protocol: Human leukemia cell lines CCRF-CEM, K562, MOLT-4, RPMI-8226 and SR, purchased from the National Cancer Institute (NCI), were cultured in RPMI 1640 medium supplemented with 5%(v/v) fetal Bovine […] and 100 units/ml penicillin and 100 units/ml streptomycin in a humidified 5% CO2 atmosphere at 37° C. • 6.1.2 Reagents and Antibodies
All 5 human leukemia cells were screened by the cell proliferation assay using SRB to quantitative cell protein mass following cucurbitacin B treatment. The experiments were repeated in triplicate. Appropriate number of cells (depends on the doubling time of cells) were seeded into a 96-well tissue culture plate and growth in the indicated medium in presence of different dosages of cucurbitacin B for 2 days. Afterwards 25 μl 80%TCA reagent was added into each well to fix the cells and the plates were incubated at 4° C. at least for 1 hour. Then the plates were washed with tap water and air dried. […] The plates were air dried and dissolved by 100 μl 1 OmMTrizma-base solution and the absorbance was measured at 515 nm using FLUOstar OPTIMA equipment. • 6.1.4 Flow Cytometry for Apoptosis Analysis
Appropriate number of cell density were seeded into a 96 well culture plate and treated with different doses of cucurbitacin B for 2 days. The growth inhibition effects of cucurbitacin B on the cells were detected using SRB.

[5] = tested on: HL60 and U937 cells; assay: Cell cycle analysis by flow cytometry, myeloid leukemia cells; type: cell-based, human; settings: 96 hours
Protocol: HL60 and U937 cells were incubated with vary doses of cucurbitacin B for 96 hours at 37° C. For analysis of cell differentiaion, cells were then incubated with either R-phycoerythrin-conjugated murine anti-human CD11b antibody (DAKO, Carpinteria, Calif.). For analysis of cell cycle, cells were washed and fixed with chilled methanol, and incubated on ice for 30 minutes prior to staining with propidium iodide. All analyses were performed by flow cytometry.

## CC(=O)OC(C)(C)/C=C/C(=O)[C@](C)(O)C1[C@H](O)C[C@@]2(C)C3CC=C4C(C[C@H](O)C(=O)C4(C)C)[C@]3(C)C(=O)C[C@]12C (stereo partly shown) [cucurbitacin B]
[1]; HT29, 5 minutes of treatment
  expression of Erk1/2: up-regulated the expression of Erk1/2 significantly
[1]; HepG2, 30 minutes of treatment
  expression of Erk1/2: up-regulated the expression of Erk1/2 significantly
[1]; MCF-7 cells, 5 minutes
  Erk activation: significant Erk activation
[2]; 20 nM and 40 nM
  changes in cell morphology: increase in cell size
[2]; 80 nM
  changes in cell morphology: shrinkage of cell size
[3]; 10 minutes to 30 minutes
  inhibition on Stat3 activation: No significant change
[3]; 1 hour to 4 hours
  inhibition effect on Stat3 activation: gradually increased at 1 hours and peak at 4 hours; also recorded: inhibited Stat3 phosphorylation
[3]; 4 hours
  Stat3 activation (phosphorylated Stat3): significant inhibited
[4]
  GI50: 15.6 to 35.3 nM
[5]
  cell cycle effect: significant S-phase cell cycle arrest
